Reference: US12172983B2, “EGFR inhibitors” (Blueprint Medicines Corporation, priority 2019, dated 2024)
Where two headings read alike, the source gives them in different places.

Experiments:
[1] = system: phosphorylation of EGFR (Tyr1068) in NCI-H1975 cell line that harbors the EGFR L858R T790M mutations; assay: NCI-H1975 pEGFR AlphaLISA assay; type: cell-based; conditions: 4-5 hours incubation, read-out: Ext pEGFR H1975
How it was run: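 NCI-H1975 cells (EGFR L858R/T790M) seeded overnight, then treated with compound for 4-5 h at 37 °C/5% CO2. After lysis, p-EGFR (Tyr1068) quantified by AlphaLISA SureFire Ultra with acceptor then donor beads; IC50 fitted from percent inhibition versus log concentration.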

[2] = target: T1, EGFR (L858R T790M C797S) (Homo sapiens, UniProt P00533, C797S/L858R/T790M); assay: Biochemical EGFR inhibition assay (Caliper mobility shift), EGFR LRTMCS mutant; conditions: inhibitory activity against EGFR LRTMCS mutant; apparent IC50; read-out: Ext Enz LRTMCS
T1 construct: purchased SignalChem E10-122VG
T1 sequence (P00533 25-1210 T790M/C797S/L858R): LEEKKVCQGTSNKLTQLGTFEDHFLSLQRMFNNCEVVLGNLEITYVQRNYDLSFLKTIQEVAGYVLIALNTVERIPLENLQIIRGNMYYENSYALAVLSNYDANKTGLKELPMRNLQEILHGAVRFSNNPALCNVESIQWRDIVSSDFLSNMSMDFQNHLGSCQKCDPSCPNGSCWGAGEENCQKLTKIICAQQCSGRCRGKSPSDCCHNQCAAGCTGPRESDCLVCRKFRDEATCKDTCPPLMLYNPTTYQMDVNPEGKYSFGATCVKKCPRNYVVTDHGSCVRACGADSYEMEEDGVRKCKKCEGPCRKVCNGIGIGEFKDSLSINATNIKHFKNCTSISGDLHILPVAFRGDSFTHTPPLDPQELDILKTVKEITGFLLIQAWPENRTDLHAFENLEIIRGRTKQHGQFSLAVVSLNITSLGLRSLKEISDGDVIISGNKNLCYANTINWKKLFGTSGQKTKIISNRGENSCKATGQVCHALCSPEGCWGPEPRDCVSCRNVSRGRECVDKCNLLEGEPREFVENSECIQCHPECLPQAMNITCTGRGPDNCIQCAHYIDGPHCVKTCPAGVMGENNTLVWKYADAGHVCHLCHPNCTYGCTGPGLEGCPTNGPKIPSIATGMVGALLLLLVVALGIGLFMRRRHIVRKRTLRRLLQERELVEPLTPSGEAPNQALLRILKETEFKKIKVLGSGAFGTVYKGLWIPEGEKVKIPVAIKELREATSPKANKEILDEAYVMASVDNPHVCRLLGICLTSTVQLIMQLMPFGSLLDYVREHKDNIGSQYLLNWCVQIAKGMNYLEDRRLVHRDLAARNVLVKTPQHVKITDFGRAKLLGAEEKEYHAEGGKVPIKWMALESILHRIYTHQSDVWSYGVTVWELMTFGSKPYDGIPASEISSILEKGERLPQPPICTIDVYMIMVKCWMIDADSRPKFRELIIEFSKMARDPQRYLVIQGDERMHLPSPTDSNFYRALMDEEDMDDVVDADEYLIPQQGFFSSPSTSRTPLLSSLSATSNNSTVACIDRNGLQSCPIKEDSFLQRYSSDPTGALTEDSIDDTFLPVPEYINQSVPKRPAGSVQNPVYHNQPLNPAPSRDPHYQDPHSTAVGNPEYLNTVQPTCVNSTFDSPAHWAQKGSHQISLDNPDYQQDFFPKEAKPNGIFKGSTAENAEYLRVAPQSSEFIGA
How it was run: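 Kinase reactions at 25 °C run to 10–20% peptide phosphorylation, stopped with 35 mM EDTA. Phosphorylated product and substrate separated electrophoretically by mobility shift. Apparent IC50 from percent activity versus log compound concentration.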

[3] = Homo sapiens, NCI-H1975, inhibition of phosphorylation of mutant EGFR in NCI-H1975 cells

| Structure (SMILES) | IC50 [1, 3] | IC50 [2] | IC50 ([1]; inhibition of phosphorylation of mutant EGFR in NCI-H1975 cells) |
| --- | --- | --- | --- |
| CCS(=O)(=O)C[C@H]1CN(c2cnc(C(C)C)c3cc(Nc4ccnc(N5CC[C@@](C)(O)[C@@H](F)C5)n4)ncc23)[C@@H]1C (single isomer, unassigned) [Compound 194] | ≤ 10 nM | ≤ 15 nM | – |
| CCS(=O)(=O)C[C@H]1CN(c2cnc(C(C)C)c3cc(Nc4ccnc(N5CC[C@](C)(O)[C@H](F)C5)n4)ncc23)[C@@H]1C (single isomer, unassigned) [Compound 195] | ≤ 10 nM | ≤ 15 nM | – |
| C[C@H](CO)c1ccc(N2C[C@@H](CS(C)(=O)=O)[C@@H]2C)c2cnc(Nc3ccnc(N4CC[C@@H](O)[C@@](C)(F)C4)n3)cc12 (single isomer, unassigned) [Compound 196, (3S,4R)-3-fluoro-1-[4-({5-[(2S)-1-hydroxypropan-2-yl]-8-[(2S,3R)-3-(methanesulfonylmethyl)-2-methylazetidin-1-yl]isoquinolin-3-yl}amino)pyrimidin-2-yl]-3-methylpiperidin-4-ol or (3S,4R)-3-fluoro-1-[4-({5-[(2R)-1-hydroxypropan-2-yl]-8-[(2S,3R)-3-(methanesulfonylmethyl)-2-methylazetidin-1-yl]isoquinolin-3-yl}amino)pyrimidin-2-yl]-3-methylpiperidin-4-ol] | 10.1 to 20 nM | ≤ 15 nM | – |
| C[C@H](CO)c1ccc(N2C[C@H](CS(C)(=O)=O)[C@H]2C)c2cnc(Nc3ccnc(N4CC[C@](C)(O)[C@H](F)C4)n3)cc12 (single isomer, unassigned) [Compound 197, (3R,4S)-3-fluoro-1-[4-({5-[(2S)-1-hydroxypropan-2-yl]-8-[(2R,3S)-3-(methanesulfonylmethyl)-2-methylazetidin-1-yl]isoquinolin-3-yl}amino)pyrimidin-2-yl]-4-methylpiperidin-4-ol or (3R,4S)-3-fluoro-1-[4-({5-[(2R)-1-hydroxypropan-2-yl]-8-[(2R,3S)-3-(methanesulfonylmethyl)-2-methylazetidin-1-yl]isoquinolin-3-yl}amino)pyrimidin-2-yl]-4-methylpiperidin-4-ol] | 30.1 to 50 nM | ≤ 15 nM | – |
| C[C@H](CO)c1ccc(N2C[C@H](CS(C)(=O)=O)[C@H]2C)c2cnc(Nc3ccnc(N4CC[C@@](C)(O)[C@@H](F)C4)n3)cc12 (single isomer, unassigned) [Compound 199, (3S,4R)-3-fluoro-1-(4-(5-((S)-1-hydroxypropan-2-yl)-8-((2R,3S)-2-methyl-3-(methylsulfonylmethyl)azetidin-1-yl)isoquinolin-3-ylamino)pyrimidin-2-yl)-4-methylpiperidin-4-ol or (3S,4R)-3-fluoro-1-(4-((5-((R)-1-hydroxypropan-2-yl)-8-((2R,3S)-2-methyl-3-((methylsulfonyl)methyl)azetidin-1-yl)isoquinolin-3-yl)amino)pyrimidin-2-yl)-4-methylpiperidin-4-ol] | 10.1 to 20 nM | ≤ 15 nM | – |
| CO[C@@H]1[C@H](F)CN(c2nccc(Nc3cc4c(C(C)C)ccc(N5C[C@H](CS(C)(=O)=O)[C@H]5C)c4cn3)n2)C[C@@H]1O (single isomer, unassigned) [Compound 202, (3S,4S,5R)-5-fluoro-1-[4-({8-[(2R,3S)-3-(methanesulfonylmethyl)-2-methylazetidin-1-yl]-5-(propan-2-yl)isoquinolin-3-yl}amino)pyrimidin-2-yl]-4-methoxypiperidin-3-ol or (3R,4R,5S)-5-fluoro-1-[4-({8-[(2R,3S)-3-(methanesulfonylmethyl)-2-methylazetidin-1-yl]-5-(propan-2-yl)isoquinolin-3-yl}amino)pyrimidin-2-yl]-4-methoxypiperidin-3-ol] | 10.1 to 20 nM | 20.1 to 30 nM | – |
| CO[C@@H]1[C@H](F)CN(c2nccc(Nc3cc4c(C(C)C)ccc(N5C[C@H](CS(C)(=O)=O)[C@H]5C)c4cn3)n2)C[C@@H]1O (single isomer, unassigned) [Compound 203, (3R,4R,5S)-5-fluoro-1-[4-({8-[(2R,3S)-3-(methanesulfonylmethyl)-2-methylazetidin-1-yl]-5-(propan-2-yl)isoquinolin-3-yl}amino)pyrimidin-2-yl]-4-methoxypiperidin-3-ol or (3S,4S,5R)-5-fluoro-1-[4-({8-[(2R,3S)-3-(methanesulfonylmethyl)-2-methylazetidin-1-yl]-5-(propan-2-yl)isoquinolin-3-yl}amino)pyrimidin-2-yl]-4-methoxypiperidin-3-ol] | – | 15.1 to 20 nM | ≤ 10 nM |
| CO[C@@H]1CN(c2nccc(Nc3cc4c(C(C)C)ccc(N5C[C@H](CS(C)(=O)=O)[C@H]5C)c4cn3)n2)C[C@H](F)[C@@H]1O (single isomer, unassigned) [Compound 204, (3S,4R,5R)-3-fluoro-1-[4-({8-[(2R,3S)-3-(methanesulfonylmethyl)-2-methylazetidin-1-yl]-5-(propan-2-yl)isoquinolin-3-yl}amino)pyrimidin-2-yl]-5-methoxypiperidin-4-ol or (3R,4S,5S)-3-fluoro-1-[4-({8-[(2R,3S)-3-(methanesulfonylmethyl)-2-methylazetidin-1-yl]-5-(propan-2-yl)isoquinolin-3-yl}amino)pyrimidin-2-yl]-5-methoxypiperidin-4-ol] | ≤ 10 nM | ≤ 15 nM | – |
| CO[C@H]1CCN(c2nccc(Nc3cc4c([C@@H](C)CO)cnc(N5C[C@H](CS(C)(=O)=O)[C@H]5C)c4cn3)n2)C[C@H]1F (single isomer, unassigned) [Compound 208, (2R)-2-[6-({2-[(3R,4S)-3-fluoro-4-methoxypiperidin-1-yl]pyrimidin-4-yl}amino)-1-[(2R,3S)-3-(methanesulfonylmethyl)-2-methylazetidin-1-yl]-2,7-naphthyridin-4-yl]propan-1-ol or (2S)-2-[6-({2-[(3R,4S)-3-fluoro-4-methoxypiperidin-1-yl]pyrimidin-4-yl}amino)-1-[(2R,3S)-3-(methanesulfonylmethyl)-2-methylazetidin-1-yl]-2,7-naphthyridin-4-yl]propan-1-ol] | 10.1 to 20 nM | ≤ 15 nM | – |
| CC(C)c1nnc(N2CC(CS(C)(=O)=O)C2)c2cnc(Nc3ccnc(N4CC[C@]5(CCO5)C(F)(F)C4)n3)cc12 (single isomer, unassigned) [Compound 209, (S)-N-(2-(5,5-difluoro-1-oxa-7-azaspiro[3.5]nonan-7-yl)pyrimidin-4-yl)-1-isopropyl-4-(3-((methylsulfonyl)methyl)azetidin-1-yl)pyrido[3,4-d]pyridazin-7-amine or (R)-N-(2-(5,5-difluoro-1-oxa-7-azaspiro[3.5]nonan-7-yl)pyrimidin-4-yl)-1-isopropyl-4-(3-((methylsulfonyl)methyl)azetidin-1-yl)pyrido[3,4-d]pyridazin-7-amine] | 30.1 to 50 nM | ≤ 15 nM | – |
| CC(C)c1ccc(N2C[C@H](CS(C)(=O)=O)[C@H]2C)c2cnc(Nc3ccnc(N4CC[C@](C)(O)C(F)(F)C4)n3)cc12 (single isomer, unassigned) [Compound 210, (4S)-3,3-difluoro-1-[4-({8-[(2R,3S)-3-(methanesulfonylmethyl)-2-methylazetidin-1-yl]-5-(propan-2-yl)isoquinolin-3-yl}amino)pyrimidin-2-yl]-4-methylpiperidin-4-ol or (4R)-3,3-difluoro-1-[4-({8-[(2R,3S)-3-(methanesulfonylmethyl)-2-methylazetidin-1-yl]-5-(propan-2-yl)isoquinolin-3-yl}amino)pyrimidin-2-yl]-4-methylpiperidin-4-ol] | 10.1 to 20 nM | 20.1 to 30 nM | – |
| CC(C)c1ccc(N2C[C@H](CS(C)(=O)=O)[C@H]2C)c2cnc(Nc3ccnc(N4CC[C@@](C)(O)C(F)(F)C4)n3)cc12 (single isomer, unassigned) [Compound 211, (R)-3,3-difluoro-1-(4-(5-isopropyl-8-((2R,3S)-2-methyl-3-(methylsulfonylmethyl)azetidin-1-yl)isoquinolin-3-ylamino)pyrimidin-2-yl)-4-methylpiperidin-4-ol or (S)-3,3-difluoro-1-(4-(5-isopropyl-8-((2R,3S)-2-methyl-3-(methylsulfonylmethyl)azetidin-1-yl)isoquinolin-3-ylamino)pyrimidin-2-yl)-4-methylpiperidin-4-ol] | ≤ 10 nM | 20.1 to 30 nM | – |
| CC(C)c1ccc(N2C[C@H](CS(C)(=O)=O)[C@H]2C)c2cnc(Nc3ccnc(N4C[C@@H](F)[C@@H](O)[C@](C)(F)C4)n3)cc12 (single isomer, unassigned) [Compound 212, (3R,4R,5R)-3,5-difluoro-1-[4-({8-[(2R,3S)-3-(methanesulfonylmethyl)-2-methylazetidin-1-yl]-5-(propan-2-yl)isoquinolin-3-yl}amino)pyrimidin-2-yl]-3-methylpiperidin-4-ol or (3S,4S,5S)-3,5-difluoro-1-[4-({8-[(2R,3S)-3-(methanesulfonylmethyl)-2-methylazetidin-1-yl]-5-(propan-2-yl)isoquinolin-3-yl}amino)pyrimidin-2-yl]-3-methylpiperidin-4-ol] | ≤ 10 nM | ≤ 15 nM | – |
